Consider 17 compounds from patent publication US20250243171A1, “QUINAZOLINE COMPOUNDS FOR TREATMENT OF DISEASE” (Arthrosi Therapeutics, Inc., priority 2021, published 2025).

As a reminder, the EC50 is the concentration that produces a half-maximal response.

Assay in all cases: EC50 assay: Ba/F3 stable cell proliferation (CCK-8, 72 h)
Common to all, as to format: cell-based

Assay [1] has as its target T1, Ba/F3 stable cells (Homo sapiens, UniProt P00533, DUP768-770, cells depend on it).
T1 construct: EC50 Ba/F3-EGFR D770-N771insSVD; other: Ba/F3-EGFR D770-N771insSVD cells, 72 h, CCK-8
Conditions: Ba/F3-EGFR D770-N771insSVD cells. Put shortly:
(§1)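 Ba/F3 stable cells were seeded at 4,000 cells/90 μL/well in 96-well plates and held 2 h at 37° C. in 5% CO2, then given 10 μL of serially titrated compound (0.1% DMSO final). After 72 h at 37° C., CCK-8 reagent was added for 4 hours and absorbance read at 450 nm to derive EC50.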

The target of assay [2] is T2, Ba/F3 stable cells (Homo sapiens, UniProt P00533, T790M/L858R, cells depend on it).
T2 construct: EC50 Ba/F3-EGFR L858R-T790M; other: Ba/F3-EGFR L858R-T790M cells, 72 h, CCK-8
T2 sequence (P00533 whole entry T790M/L858R): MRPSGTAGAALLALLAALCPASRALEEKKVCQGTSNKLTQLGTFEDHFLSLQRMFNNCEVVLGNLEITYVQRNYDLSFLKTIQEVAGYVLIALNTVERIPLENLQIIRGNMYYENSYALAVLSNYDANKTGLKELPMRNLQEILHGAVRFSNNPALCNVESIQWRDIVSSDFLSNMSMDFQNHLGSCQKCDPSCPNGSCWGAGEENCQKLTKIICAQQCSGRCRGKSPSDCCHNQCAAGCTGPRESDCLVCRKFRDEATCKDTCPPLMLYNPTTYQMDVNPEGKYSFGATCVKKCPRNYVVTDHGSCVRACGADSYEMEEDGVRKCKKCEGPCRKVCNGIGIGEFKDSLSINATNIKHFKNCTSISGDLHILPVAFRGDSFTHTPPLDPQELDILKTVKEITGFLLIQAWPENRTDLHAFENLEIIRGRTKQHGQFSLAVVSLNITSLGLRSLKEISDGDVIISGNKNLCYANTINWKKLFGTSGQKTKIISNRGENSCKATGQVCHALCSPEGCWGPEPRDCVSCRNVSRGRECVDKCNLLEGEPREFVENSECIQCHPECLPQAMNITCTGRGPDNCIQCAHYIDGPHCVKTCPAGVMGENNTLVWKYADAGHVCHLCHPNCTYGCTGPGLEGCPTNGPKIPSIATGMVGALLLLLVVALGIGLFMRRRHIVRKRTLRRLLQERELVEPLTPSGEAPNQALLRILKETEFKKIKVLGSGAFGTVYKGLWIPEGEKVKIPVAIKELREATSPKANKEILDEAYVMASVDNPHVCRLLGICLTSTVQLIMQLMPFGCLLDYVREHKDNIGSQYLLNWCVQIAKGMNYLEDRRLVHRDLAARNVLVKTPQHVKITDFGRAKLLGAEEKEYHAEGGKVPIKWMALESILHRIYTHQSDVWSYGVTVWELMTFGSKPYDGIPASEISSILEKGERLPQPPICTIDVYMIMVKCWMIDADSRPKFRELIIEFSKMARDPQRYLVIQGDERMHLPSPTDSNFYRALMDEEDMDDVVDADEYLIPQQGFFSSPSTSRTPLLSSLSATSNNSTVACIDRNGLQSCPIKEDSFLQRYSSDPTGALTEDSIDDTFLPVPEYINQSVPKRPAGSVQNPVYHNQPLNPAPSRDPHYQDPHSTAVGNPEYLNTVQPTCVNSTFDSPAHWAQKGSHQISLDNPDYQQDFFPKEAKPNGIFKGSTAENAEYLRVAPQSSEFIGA
Conditions: Ba/F3-EGFR L858R-T790M cells. The procedure, abridged:
as §1

Assay [3] concerns the target T3, Ba/F3 stable cells (Homo sapiens, UniProt P04626, DUP772-775, cells depend on it).
T3 construct: EC50 Ba/F3-HER2 A775-G776insYVMA; other: Ba/F3-HER2 A775-G776insYVMA cells, 72 h, CCK-8
Conditions: Ba/F3-HER2 A775-G776insYVMA cells. The procedure, abridged:
as §1

Assay [4] has as its target T4, Ba/F3 stable cells (Homo sapiens, UniProt P00533, INS763FQEA, cells depend on it).
T4 construct: EC50 Ba/F3-EGFR A763-Y764insFQEA; other: Ba/F3-EGFR A763-Y764insFQEA cells, 72 h, CCK-8
The note with it: Ba/F3-EGFR A763-Y764insFQEA cells. Put shortly: as §1

The target in assay [5] is T5, Ba/F3 stable cells (Homo sapiens, UniProt P00533, DUP771-773, cells depend on it).
T5 construct: EC50 Ba/F3-EGFR H773-V774insNPH; other: Ba/F3-EGFR H773-V774insNPH cells, 72 h, CCK-8
The note with it: Ba/F3-EGFR H773-V774insNPH cells. Put shortly:
as §1

Assay [6] concerns the target T6, Ba/F3 stable cells (Homo sapiens, UniProt P00533, DUP767-769, cells depend on it).
T6 construct: EC50 Ba/F3-EGFR V769-D770insASV; other: Ba/F3-EGFR V769-D770insASV cells, 72 h, CCK-8
Conditions: Ba/F3-EGFR V769-D770insASV cells. The procedure, abridged: as §1

T1 sequence (P00533 with tags, fused parts or gaps DUP768-770): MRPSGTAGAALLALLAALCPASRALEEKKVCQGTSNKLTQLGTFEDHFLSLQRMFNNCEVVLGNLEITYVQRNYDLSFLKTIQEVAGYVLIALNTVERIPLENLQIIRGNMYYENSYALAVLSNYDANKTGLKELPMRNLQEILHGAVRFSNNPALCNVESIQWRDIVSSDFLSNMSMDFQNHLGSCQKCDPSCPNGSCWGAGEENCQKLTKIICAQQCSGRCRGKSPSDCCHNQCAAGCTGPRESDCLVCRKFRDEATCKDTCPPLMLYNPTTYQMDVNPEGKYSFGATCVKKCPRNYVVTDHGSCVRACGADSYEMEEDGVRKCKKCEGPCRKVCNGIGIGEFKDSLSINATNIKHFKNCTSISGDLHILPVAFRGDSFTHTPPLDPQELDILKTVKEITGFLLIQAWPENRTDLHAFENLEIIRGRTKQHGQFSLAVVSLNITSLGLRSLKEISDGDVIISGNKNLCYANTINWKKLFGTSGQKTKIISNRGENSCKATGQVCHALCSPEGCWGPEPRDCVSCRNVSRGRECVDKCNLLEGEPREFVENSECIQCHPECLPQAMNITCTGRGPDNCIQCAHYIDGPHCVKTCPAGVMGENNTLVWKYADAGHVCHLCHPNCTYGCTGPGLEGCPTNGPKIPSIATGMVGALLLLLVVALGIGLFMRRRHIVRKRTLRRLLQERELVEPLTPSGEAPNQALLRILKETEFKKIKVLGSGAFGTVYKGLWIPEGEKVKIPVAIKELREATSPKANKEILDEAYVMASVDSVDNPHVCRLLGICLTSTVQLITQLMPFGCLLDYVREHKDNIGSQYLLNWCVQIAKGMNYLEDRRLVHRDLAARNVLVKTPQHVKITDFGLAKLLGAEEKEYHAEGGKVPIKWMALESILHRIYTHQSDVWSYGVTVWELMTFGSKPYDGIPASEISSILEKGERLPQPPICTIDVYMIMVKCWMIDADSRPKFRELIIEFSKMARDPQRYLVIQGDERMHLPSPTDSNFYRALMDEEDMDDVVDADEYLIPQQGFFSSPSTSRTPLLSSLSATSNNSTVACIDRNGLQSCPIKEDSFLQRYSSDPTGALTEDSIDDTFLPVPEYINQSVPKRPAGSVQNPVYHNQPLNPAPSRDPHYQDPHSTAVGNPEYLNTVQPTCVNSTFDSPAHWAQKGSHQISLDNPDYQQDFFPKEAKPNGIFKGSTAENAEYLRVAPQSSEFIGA
T6 sequence (P00533 with tags, fused parts or gaps DUP767-769): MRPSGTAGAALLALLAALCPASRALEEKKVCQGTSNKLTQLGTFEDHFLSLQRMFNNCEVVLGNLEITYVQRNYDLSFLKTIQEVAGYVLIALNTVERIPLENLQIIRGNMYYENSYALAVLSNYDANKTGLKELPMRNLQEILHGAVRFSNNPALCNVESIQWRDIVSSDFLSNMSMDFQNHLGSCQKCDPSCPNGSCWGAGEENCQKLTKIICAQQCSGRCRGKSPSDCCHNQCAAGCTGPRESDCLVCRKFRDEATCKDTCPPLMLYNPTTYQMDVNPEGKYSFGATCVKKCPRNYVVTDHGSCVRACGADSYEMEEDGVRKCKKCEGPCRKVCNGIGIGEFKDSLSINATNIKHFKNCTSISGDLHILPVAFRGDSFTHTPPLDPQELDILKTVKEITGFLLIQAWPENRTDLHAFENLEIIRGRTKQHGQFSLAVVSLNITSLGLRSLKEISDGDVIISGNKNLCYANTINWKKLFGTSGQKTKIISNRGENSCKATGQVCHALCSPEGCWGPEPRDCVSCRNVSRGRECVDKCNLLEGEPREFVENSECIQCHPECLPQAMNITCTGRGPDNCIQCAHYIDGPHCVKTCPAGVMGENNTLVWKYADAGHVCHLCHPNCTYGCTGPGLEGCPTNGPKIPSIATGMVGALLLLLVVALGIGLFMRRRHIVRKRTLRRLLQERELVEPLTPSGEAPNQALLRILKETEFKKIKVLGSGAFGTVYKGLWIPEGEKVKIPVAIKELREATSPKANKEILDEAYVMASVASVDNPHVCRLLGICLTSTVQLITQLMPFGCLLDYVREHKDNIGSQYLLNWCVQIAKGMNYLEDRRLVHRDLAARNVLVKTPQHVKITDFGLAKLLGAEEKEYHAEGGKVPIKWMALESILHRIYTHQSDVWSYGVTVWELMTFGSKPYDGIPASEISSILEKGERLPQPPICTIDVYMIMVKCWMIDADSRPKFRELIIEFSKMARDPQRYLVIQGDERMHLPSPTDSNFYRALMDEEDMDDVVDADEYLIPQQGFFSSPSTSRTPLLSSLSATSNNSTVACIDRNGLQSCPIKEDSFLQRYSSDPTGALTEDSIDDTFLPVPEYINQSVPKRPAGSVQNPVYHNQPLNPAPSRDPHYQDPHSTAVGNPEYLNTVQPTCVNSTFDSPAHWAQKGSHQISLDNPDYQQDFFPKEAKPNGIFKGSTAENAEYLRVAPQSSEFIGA
T4 sequence (P00533 with tags, fused parts or gaps INS763FQEA): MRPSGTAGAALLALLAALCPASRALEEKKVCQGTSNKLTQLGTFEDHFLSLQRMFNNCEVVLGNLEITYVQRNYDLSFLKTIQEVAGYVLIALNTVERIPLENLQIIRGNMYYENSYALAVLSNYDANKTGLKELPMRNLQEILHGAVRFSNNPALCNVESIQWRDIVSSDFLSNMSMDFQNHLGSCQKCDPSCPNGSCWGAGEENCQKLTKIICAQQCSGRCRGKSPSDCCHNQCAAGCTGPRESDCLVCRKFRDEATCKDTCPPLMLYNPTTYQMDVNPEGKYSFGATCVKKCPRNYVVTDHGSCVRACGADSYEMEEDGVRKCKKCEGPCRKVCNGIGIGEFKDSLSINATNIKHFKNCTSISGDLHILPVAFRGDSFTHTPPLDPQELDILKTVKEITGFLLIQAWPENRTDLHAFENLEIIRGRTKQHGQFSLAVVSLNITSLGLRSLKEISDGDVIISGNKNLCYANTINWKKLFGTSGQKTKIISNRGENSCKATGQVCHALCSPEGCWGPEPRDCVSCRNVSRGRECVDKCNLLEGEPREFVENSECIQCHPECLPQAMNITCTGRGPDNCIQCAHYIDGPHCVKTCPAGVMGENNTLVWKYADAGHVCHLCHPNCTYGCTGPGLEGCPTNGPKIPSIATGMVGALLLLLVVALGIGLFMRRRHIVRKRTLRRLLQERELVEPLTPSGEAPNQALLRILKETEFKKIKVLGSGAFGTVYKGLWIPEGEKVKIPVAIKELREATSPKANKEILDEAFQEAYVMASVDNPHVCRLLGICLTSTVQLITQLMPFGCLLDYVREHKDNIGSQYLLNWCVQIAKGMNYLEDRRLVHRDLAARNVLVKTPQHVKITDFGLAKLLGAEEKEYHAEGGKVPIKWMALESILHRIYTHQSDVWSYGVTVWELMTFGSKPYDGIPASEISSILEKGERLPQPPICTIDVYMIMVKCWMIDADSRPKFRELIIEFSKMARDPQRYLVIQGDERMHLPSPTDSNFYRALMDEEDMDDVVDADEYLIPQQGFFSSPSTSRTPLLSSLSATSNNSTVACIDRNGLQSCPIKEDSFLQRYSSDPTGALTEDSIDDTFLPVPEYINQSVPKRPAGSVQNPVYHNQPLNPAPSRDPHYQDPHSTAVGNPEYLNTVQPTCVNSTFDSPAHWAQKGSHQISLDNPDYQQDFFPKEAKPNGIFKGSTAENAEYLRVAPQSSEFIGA

Regarding `C=CC(=O)N1CCC(Oc2cc3c(NCc4cccc(C)c4)ncnc3cc2OC)CC1` [Compound 121, 1-(4-((7-methoxy-4-((3-methylbenzyl)amino)quinazolin-6-yl)oxy)piperidin-1-yl)prop-2-en-1-one], the EC50 on Ba/F3 stable cells [1] was 200 to 1000 nM; on Ba/F3 stable cells [2] it was 200 to 1000 nM; on Ba/F3 stable cells [3], 200 to 1000 nM; on Ba/F3 stable cells [4] it was at most 200 nM; on Ba/F3 stable cells [5], 200 to 1000 nM; on Ba/F3 stable cells [6], 200 to 1000 nM.

Turning to `C=CC(=O)N1CCC(Oc2cc3c(NCc4cc(F)cc(Cl)c4)ncnc3cc2OC)CC1` [Compound 122, 1-(4-((4-((3-chloro-5-fluorobenzyl)amino)-7-methoxyquinazolin-6-yl)oxy)piperidin-1-yl)prop-2-en-1-one], the EC50 was 200 to 1000 nM at Ba/F3 stable cells [1]; 200 to 1000 nM at Ba/F3 stable cells [2]; over 1000 nM at Ba/F3 stable cells [3]; at most 200 nM at Ba/F3 stable cells [4]; 200 to 1000 nM at Ba/F3 stable cells [5]; 200 to 1000 nM at Ba/F3 stable cells [6].

Consider `C=CC(=O)N1CCC(Oc2cc3c(NCc4ccccc4)ncnc3cc2OC)CC1` [Compound 123, 1-(4-((4-(benzylamino)-7-methoxyquinazolin-6-yl)oxy)piperidin-1-yl)prop-2-en-1-one], for which the EC50 is 200 to 1000 nM at Ba/F3 stable cells [1]; 200 to 1000 nM at Ba/F3 stable cells [2]; 200 to 1000 nM at Ba/F3 stable cells [3]; at most 200 nM at Ba/F3 stable cells [4]; at most 200 nM at Ba/F3 stable cells [5]; at most 200 nM at Ba/F3 stable cells [6].

For the compound `C=CC(=O)N1CCC(Oc2cc3c(NCc4cccc(C#N)c4)ncnc3cc2OC)CC1` [Compound 124, 3-(((6-((1-acryloylpiperidin-4-yl)oxy)-7-methoxyquinazolin-4-yl)amino)methyl)benzonitrile], the 50% effective concentration (EC50) at Ba/F3 stable cells [1] is over 1000 nM; on Ba/F3 stable cells [2], over 1000 nM; on Ba/F3 stable cells [3], over 1000 nM; at Ba/F3 stable cells [4], at most 200 nM; on Ba/F3 stable cells [5], over 1000 nM; on Ba/F3 stable cells [6], over 1000 nM.

With `C=CC(=O)N1CCC(Oc2cc3c(NCc4cccc(I)c4)ncnc3cc2OC)CC1` [Compound 125, 1-(4-((4-((3-iodobenzyl)amino)-7-methoxyquinazolin-6-yl)oxy)piperidin-1-yl)prop-2-en-1-one], the concentration for a half-maximal effect (EC50) at Ba/F3 stable cells [1] is 200 to 1000 nM; at Ba/F3 stable cells [2] it was 200 to 1000 nM; on Ba/F3 stable cells [3], 200 to 1000 nM; at Ba/F3 stable cells [4], at most 200 nM; at Ba/F3 stable cells [5] it was 200 to 1000 nM; on Ba/F3 stable cells [6], 200 to 1000 nM.

As to `C=CC(=O)N1CCC(Oc2cc3c(NC(C(=O)O)c4cccc(Cl)c4)ncnc3cc2OC)CC1` (stereo not drawn) [Compound 126, 2-((6-((1-acryloylpiperidin-4-yl)oxy)-7-methoxyquinazolin-4-yl)amino)-2-(3-chlorophenyl)acetic acid], the EC50 on Ba/F3 stable cells [1], on Ba/F3 stable cells [2], at Ba/F3 stable cells [3], on Ba/F3 stable cells [4], on Ba/F3 stable cells [5] and on Ba/F3 stable cells [6] was over 1000 nM in each case.

Consider `C=CC(=O)N1CCC(Oc2cc3c(NC(C(N)=O)c4cccc(Cl)c4)ncnc3cc2OC)CC1` (stereo not drawn) [Compound 127, 2-((6-((1-acryloylpiperidin-4-yl)oxy)-7-methoxyquinazolin-4-yl)amino)-2-(3-chlorophenyl)acetamide], for which the EC50 on Ba/F3 stable cells [1] is over 1000 nM; on Ba/F3 stable cells [2], over 1000 nM; on Ba/F3 stable cells [3] it was over 1000 nM; at Ba/F3 stable cells [4] it was at most 200 nM; on Ba/F3 stable cells [5], over 1000 nM; at Ba/F3 stable cells [6], 200 to 1000 nM.

Turning to `C=CC(=O)N1CCC(Oc2cc3c(NC(CC(=O)O)c4cccc(Cl)c4)ncnc3cc2OC)CC1` (stereo not drawn) [Compound 129, 3-((6-((1-acryloylpiperidin-4-yl)oxy)-7-methoxyquinazolin-4-yl)amino)-3-(3-chlorophenyl)propanoic acid], the half-maximal effective concentration (EC50) at Ba/F3 stable cells [1], at Ba/F3 stable cells [2], at Ba/F3 stable cells [3], at Ba/F3 stable cells [4], at Ba/F3 stable cells [5] and on Ba/F3 stable cells [6] was over 1000 nM each time.

Turning to `C=CC(=O)N1CCC(Oc2cc3c(NC(CC(N)=O)c4cccc(Cl)c4)ncnc3cc2OC)CC1` (stereo not drawn) [Compound 130, 3-((6-((1-acryloylpiperidin-4-yl)oxy)-7-methoxyquinazolin-4-yl)amino)-3-(3-chlorophenyl)propanamide], the EC50 at Ba/F3 stable cells [1] was over 1000 nM; at Ba/F3 stable cells [2], over 1000 nM; at Ba/F3 stable cells [3], 200 to 1000 nM; on Ba/F3 stable cells [4], at most 200 nM; on Ba/F3 stable cells [5] it was 200 to 1000 nM; at Ba/F3 stable cells [6] it was at most 200 nM.

As to `C=CC(=O)N1CCC(Oc2cc3c(NC(CCO)c4cccc(Cl)c4)ncnc3cc2OC)CC1` (stereo not drawn) [Compound 131, 1-(4-((4-((1-(3-chlorophenyl)-3-hydroxypropyl)amino)-7-methoxyquinazolin-6-yl)oxy)piperidin-1-yl)prop-2-en-1-one], the EC50 was at most 200 nM on Ba/F3 stable cells [1]; over 1000 nM on Ba/F3 stable cells [2]; at most 200 nM on Ba/F3 stable cells [3]; at most 200 nM on Ba/F3 stable cells [4]; at most 200 nM at Ba/F3 stable cells [5]; at most 200 nM on Ba/F3 stable cells [6].

Turning to `C=CC(=O)N1CCCC(Oc2cc3c(Nc4ccc(Cl)c(Cl)c4F)ncnc3cc2OC)C1` (stereo not drawn) [Compound 132, 1-(3-((4-((3,4-dichloro-2-fluorophenyl)amino)-7-methoxyquinazolin-6-yl)oxy)piperidin-1-yl)prop-2-en-1-one], the EC50 on Ba/F3 stable cells [1] is 200 to 1000 nM; on Ba/F3 stable cells [2], over 1000 nM; on Ba/F3 stable cells [3], 200 to 1000 nM; at Ba/F3 stable cells [4] it was at most 200 nM; on Ba/F3 stable cells [5], 200 to 1000 nM; on Ba/F3 stable cells [6] it was 200 to 1000 nM.

As to `C=CC(=O)N1CCC(Oc2cc3c(Nc4ccc5c(c4)CCN5S(C)(=O)=O)ncnc3cc2OC)CC1` [Compound 134, 1-(4-((7-methoxy-4-((1-(methylsulfonyl)indolin-5-yl)amino)quinazolin-6-yl)oxy)piperidin-1-yl)prop-2-en-1-one], the EC50 on Ba/F3 stable cells [1] is over 1000 nM; on Ba/F3 stable cells [2], over 1000 nM; at Ba/F3 stable cells [3], at most 200 nM; on Ba/F3 stable cells [4] it was 200 to 1000 nM; at Ba/F3 stable cells [5], over 1000 nM; at Ba/F3 stable cells [6], over 1000 nM.

On to `C=CC(=O)N1CCC(Oc2cc3c(Nc4cnc5ccccc5c4)ncnc3cc2OC)CC1` [Compound 135, 1-(4-((7-methoxy-4-(quinolin-3-ylamino)quinazolin-6-yl)oxy)piperidin-1-yl)prop-2-en-1-one], for which the EC50 was 200 to 1000 nM at Ba/F3 stable cells [1]; 200 to 1000 nM at Ba/F3 stable cells [2]; 200 to 1000 nM at Ba/F3 stable cells [3]; at most 200 nM on Ba/F3 stable cells [4]; 200 to 1000 nM on Ba/F3 stable cells [5]; at most 200 nM on Ba/F3 stable cells [6].

For `C=CC(=O)N1CCC(Oc2cc3c(Nc4nc5cc(Cl)ccc5o4)ncnc3cc2OC)CC1` [Compound 136, 1-(4-((4-((5-chlorobenzo[d]oxazol-2-yl)amino)-7-methoxyquinazolin-6-yl)oxy)piperidin-1-yl)prop-2-en-1-one], the EC50 on Ba/F3 stable cells [1] was over 1000 nM; on Ba/F3 stable cells [2], over 1000 nM; at Ba/F3 stable cells [3] it was over 1000 nM; on Ba/F3 stable cells [4] it was 200 to 1000 nM; at Ba/F3 stable cells [5] it was over 1000 nM; on Ba/F3 stable cells [6] it was over 1000 nM.

For `C=CC(=O)N1CCC(Oc2cc3c(Nc4ccc5cn[nH]c5c4)ncnc3cc2OC)CC1` [Compound 137, 1-(4-((4-((1H-indazol-6-yl)amino)-7-methoxyquinazolin-6-yl)oxy)piperidin-1-yl)prop-2-en-1-one], the EC50 on Ba/F3 stable cells [1] is over 1000 nM; on Ba/F3 stable cells [2] it was over 1000 nM; at Ba/F3 stable cells [3], 200 to 1000 nM; on Ba/F3 stable cells [4], at most 200 nM; on Ba/F3 stable cells [5], over 1000 nM; at Ba/F3 stable cells [6], 200 to 1000 nM.

Turning to `C=CC(=O)N1CCC(Oc2cc3c(Nc4ccc5cnn(C)c5c4)ncnc3cc2OC)CC1` [Compound 138, 1-(4-((7-methoxy-4-((1-methyl-1H-indazol-6-yl)amino)quinazolin-6-yl)oxy)piperidin-1-yl)prop-2-en-1-one], the EC50 was 200 to 1000 nM at Ba/F3 stable cells [1]; 200 to 1000 nM at Ba/F3 stable cells [2]; at most 200 nM on Ba/F3 stable cells [3]; at most 200 nM at Ba/F3 stable cells [4]; 200 to 1000 nM at Ba/F3 stable cells [5]; at most 200 nM at Ba/F3 stable cells [6].

In the case of `C=CC(=O)N1CCC(Oc2cc3c(Nc4cccc5cn[nH]c45)ncnc3cc2OC)CC1` [Compound 139, 1-(4-((4-((1H-indazol-7-yl)amino)-7-methoxyquinazolin-6-yl)oxy)piperidin-1-yl)prop-2-en-1-one], the half-maximal effective concentration (EC50) is over 1000 nM on Ba/F3 stable cells [1]; over 1000 nM at Ba/F3 stable cells [2]; over 1000 nM at Ba/F3 stable cells [3]; at most 200 nM on Ba/F3 stable cells [4]; over 1000 nM at Ba/F3 stable cells [5]; over 1000 nM on Ba/F3 stable cells [6].
